Data published in patent US20070191336A1 (priority 2003, published 2007).
Read-outs that look alike come from different tables or passages of the source.

Key:
[1] = system: LPS-induced TNF-alpha release from human peripheral blood mononuclear leukocytes; assay: Human peripheral blood mononuclear leukocyte cell assay (LPS-induced TNF-alpha release, ELISA); format: cell-based; settings: 25 ng/mL LPS, 16 hours incubation, read-out: IC50 for inhibition of TNF-alpha release
Protocol: The quantity of LPS-induced tumor necrosis factor-alpha (TNF-alpha) cytokine release is measured by a commercially available Enzyme-Linked Immunosorbent Assay (ELISA) kit. Test compounds are evaluated for their ability to inhibit TNF-alpha release. […] Test compounds evaluated are illustrated in Table 4.

[2] = biological target: T1, phospho p-38 alpha kinase (Homo sapiens, UniProt Q16539); assay: P-38 alpha kinase assay (spectrophotometric, pyruvate kinase/lactate dehydrogenase coupled); format: biochemical; settings: for IC50: rates from […] to 2 h time frame
T1 construct: purchased Panvera
T1 sequence (Q16539 whole entry): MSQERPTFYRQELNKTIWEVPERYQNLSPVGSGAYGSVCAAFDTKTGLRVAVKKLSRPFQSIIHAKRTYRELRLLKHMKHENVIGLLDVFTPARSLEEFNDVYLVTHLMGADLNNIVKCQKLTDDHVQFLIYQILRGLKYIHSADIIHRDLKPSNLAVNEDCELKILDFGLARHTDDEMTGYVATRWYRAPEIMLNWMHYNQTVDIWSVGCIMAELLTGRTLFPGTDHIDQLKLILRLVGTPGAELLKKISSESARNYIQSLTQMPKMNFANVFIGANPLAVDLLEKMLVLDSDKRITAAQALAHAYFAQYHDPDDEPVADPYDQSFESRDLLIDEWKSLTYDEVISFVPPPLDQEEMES

[3] = biological target: p38 MAP kinase (unphosphorylated p38-alpha kinase) (Homo sapiens, UniProt Q16539); assay: P38 MAP kinase binding assay (fluorescence competition with SKF 86002 probe); settings: for Time-dependent: time-dependent if IC50 values decrease with the reaction time (more than two-fold in four hours)
Sequence of p38 MAP kinase (unphosphorylated p38-alpha kinase) (Q16539 whole entry): as above
Protocol: The reaction was initiated by addition of the enzyme. […] By comparison of rfu (relative fluorescence unit) values with that of a control (in the absence of an inhibitor), the percentage of inhibition at each concentration of the inhibitor was calculated. IC50 value for the inhibitor was calculated from the % inhibition values obtained at a range of concentrations of the inhibitor using Prism. When time-dependent inhibition was assessed, the plate was read at multiple reaction times such as 0.5, 1, 2, 3, 4 and 6 hours. The IC50 values were calculated at the each time point. An inhibition was assigned as time-dependent if the IC50 values decrease with the reaction time (more than two-fold in four hours).

Structure (SMILES)	IC50 [1]	IC50 ([2]; Table 3)	also measured
CC(C)(C)c1cc(NC(=O)Nc2ccc(Br)cc2)n(-c2ccc(CO)cc2)n1 [Example 60]	2340 nM	–	–
CC(C)(C)c1cc(NC(=O)Nc2cccc3ccccc23)n(-c2cccc(CN3C(=O)CNS3(=O)=O)c2)n1 [Example 3, 1-(3-tert-butyl-1-{[3-(1,1,3-trioxo-[1,2,5]thiadiazolidin-2-yl)methyl]phenyl}-1H-pyrazol-5-yl)-3-(naphthalen-1-yl)urea]	6100 nM	–	–
CCOC(=O)CCc1ccc(-n2nc(C(C)(C)C)cc2NC(=O)Nc2cccc3ccccc23)cc1 [Example 296, ethyl 3-(4-(3-tert-butyl-5-(3-(naphthalen-1-yl)ureido)-1H-pyrazol-1-yl)phenyl)propanoate]	3490 nM	–	–
CC1(C)C(=O)NN(Cc2cccc(-n3nc(C(C)(C)C)cc3NC(=O)Nc3cccc4ccccc34)c2)C1=O [Example 13, 1-(3-tert-butyl-1-{3-[(4,4-dimethyl-3,5-dioxopyrazolidin-1-yl)methyl]phenyl}-1H-pyrazol-5-yl)-3-(naphthalen-1-yl)urea]	6320 nM	–	–
CC(C)(C)c1cc(NC(=O)Nc2cccc3ccccc23)n(-c2cccc(CC(=O)N3CCOCC3)c2)n1 [Example 21, 1-{3-tert-butyl-1-[3-(2-morpholino-2-oxoethyl)phenyl]-1H-pyrazol-5-yl}-3-(naphthalene-1-yl)urea]	3400 nM	–	IC50 ([2]; Table 2): 171 nM; IC50 [3]: 48 nM; Time-dependent [3]: Yes
CC(C)(C)c1cc(NC(=O)Nc2cccc3ccccc23)n(-c2cccc(CCC(=O)O)c2)n1 [Example 29]	2680 nM	–	–
CC1(C(=O)O)CC2(C)CC(C)(C1)C(=O)N(Cc1cccc(-n3nc(C(C)(C)C)cc3NC(=O)Nc3ccc(Cl)cc3)c1)C2=O (stereo not drawn) [Example 12]	–	–	inhibition at 10 µM ([2]; read-out: % inhibition @ concentration, Table 2, at 10 uM): 70%; IC50 [3]: ~10000 nM; Time-dependent [3]: No
CC(C)(C)c1cc(NC(=O)Nc2cccc3ccccc23)n(-c2cccc(CCN3CCOCC3)c2)n1 [Example 300]	4780 nM	–	–
CC1(C(=O)O)CC2(C)CC(C)(C1)C(=O)N(Cc1cccc(-n3nc(C(C)(C)C)cc3NC(=O)Nc3cccc4ccccc34)c1)C2=O (stereo not drawn) [Example 11]	–	–	IC50 ([2]; Table 2): 953 nM; IC50 ([3]; read-out: IC50): 2150 nM; Time-dependent [3]: No
CC(C)(C)c1cc(NC(=O)Nc2cccc3ccccc23)n(-c2ccc(CN)cc2)n1 [Example 45, 1-{3-tert-butyl-1-[4-(aminomethyl)phenyl]-1H-pyrazol-5-yl}-3-(naphthalen-1-yl)urea]	–	–	IC50 ([2]; Table 2): 480 nM; IC50 ([3]; read-out: IC50): 1860 nM; Time-dependent [3]: No
CC(C)(C)c1cc(NC(=O)Nc2cccc3ccccc23)n(-c2cccc(CN3C(=O)CCC3=O)c2)n1 [Example 308, 1-(3-t-butyl-1-{3-[(2,5-dioxopyrrolidin-1-yl)methyl]phenyl}-1H-pyrazol-5-yl)-3-(naphthalen-1-yl)urea]	–	120 nM	–
O=C(Nc1ccc(Cl)cc1)Nc1cc(C(F)(F)F)nn1-c1ccc(CO)cc1 [Example 442, 1-(4-chlorophenyl)-3-{3-(trifluoromethyl)-1-[4-(hydroxyl-methyl)phenyl]-1H-pyrazol-5-yl}urea]	–	3010 nM	–
CC(C)(C)c1cc(NC(=O)Nc2cccc(Cl)c2)n(-c2cccc(CN)c2)n1 [Example 386, 1-{1-[3-(aminomethyl)phenyl]-3-t-butyl-1H-pyrazol-5-yl}-3-(3-chloro-phenyl)urea]	–	114 nM	–
CC(C)(C)c1cc(NC(=O)Nc2cccc(C(F)(F)F)c2)n(-c2cccc(CO)c2)n1 [Example 408, 1-{3-t-butyl-1-[3-(hydroxymethyl)phenyl]-1H-pyrazol-5-yl}-3-(3-(trifluoromethyl)phenyl)urea]	–	116 nM	–
CC(C)(O)c1cccc(-n2nc(C(F)(F)F)cc2NC(=O)Nc2cccc3ccccc23)c1 [Example 440]	–	920 nM	–
COc1cccc(-n2nc(C(C)(C)C)cc2NC(=O)Nc2cccc(F)c2)c1 [Example 310, 1-(3-t-butyl-1-(3-methoxyphenyl)-1H-pyrazol-5-yl)-3-(3-fluorophenyl)urea]	–	130 nM	–
COc1cccc(-n2nc(C(C)(C)C)cc2NC(=O)Nc2ccc(C#N)cc2)c1 [Example 322, 1-(3-t-butyl-1-(3-methoxyphenyl)-1H-pyrazol-5-yl)-3-(4-cyanophenyl)urea]	–	2020 nM	–
CCOC(=O)c1cccc(-n2nc(C(C)(C)C)cc2NC(=O)Nc2ccc3c(c2)OCO3)c1 [Example 396, ethyl 3-{5-[3-(benzo[d][1,3]dioxo-5-yl)ureido]-3-t-butyl-1H-pyrazol-1-yl}benzoate]	–	–	inhibition at 0.1 µM ([2]; read-out: % Inhibition @ concentration, Table 3, at 0.1 uM): 3%; inhibition at 1 µM ([2]; read-out: % Inhibition @ concentration, Table 3, at 1 uM): 56%
CC(C)(C)c1cc(NC(=O)Nc2ccc3c(c2)OCO3)n(-c2ccc3c(c2)CNCC3)n1 [Example 513, 1-benzo[d][1,3]dioxol-5-yl-3-[3-t-butyl-1-(1,2,3,4-tetrahydroisoquinolin-7-yl)-1H-pyrazol-5-yl]urea]	–	410 nM	–
CC(Cc1cccc(-n2nc(C(C)(C)C)cc2NC(=O)Nc2cccc(Cl)c2Cl)c1)C(=O)O (stereo not drawn) [Example 426, 3-(3-{3-t-butyl-5-[3-(2,3-dichlorophenyl)ureido]-1H-pyrazol-1-yl}-phenyl)-2-methylpropanoic acid]	–	13 nM	–
CC(C)(C)c1cc(NC(=O)Nc2cccc3ccccc23)n(-c2ccc(CCC(=O)O)cc2)n1 [Example 31, 3-{4-[3-tert-butyl-5-(3-(naphthalene-1-yl)ureido]-1H-pyrazol-1-yl}phenyl)propanonic acid]	4520 nM	–	–
CN1CCN(C(=O)NCc2cccc(-n3nc(C(C)(C)C)cc3NC(=O)Nc3cccc4ccccc34)c2)CC1 [Example 492, 1-(3-t-butyl-1-{3-[(1-methylpiperazine-4-carboxamido)methyl]phenyl)-1H-pyrazol-5-yl)-3-(naphthalen-1-yl)urea]	–	40 nM	–
CCOC(=O)CCc1cccc(-n2nc(C(C)(C)C)cc2NC(=O)Nc2cccc(Cl)c2Cl)c1 [Example 364, 3-(3-{3-t-butyl-5-[3-(2,3-dichlorophenyl)ureido]-1H-pyrazol-1-yl}phenyl)propionic acid ethyl ester]	–	10 nM	–
